Laboratory results as given in patent US20100056524A1, “Compound” (priority 2008, published 2010).
Counter-ions that a name gives are not always drawn. Like-named read-outs stand apart in the source and are kept apart here.

Tests used:
Assay type in all cases: biochemical
MAPKAP-K2 = target: T1, MAPKAP-K2 (Homo sapiens, UniProt P49137); assay: MAPKAP-K2 protein kinase assay; details: for remaining activity at 10 µM: 10 μM compound; for residual kinase activity MAPKAP-K2: 1 μm compound; for remaining activity at 1 µM: 1 μM compound
T1 construct: All protein kinases were of human origin and encoded full length proteins, unless indicated otherwise; made in house
T1 sequence (P49137 46-400 limits assumed): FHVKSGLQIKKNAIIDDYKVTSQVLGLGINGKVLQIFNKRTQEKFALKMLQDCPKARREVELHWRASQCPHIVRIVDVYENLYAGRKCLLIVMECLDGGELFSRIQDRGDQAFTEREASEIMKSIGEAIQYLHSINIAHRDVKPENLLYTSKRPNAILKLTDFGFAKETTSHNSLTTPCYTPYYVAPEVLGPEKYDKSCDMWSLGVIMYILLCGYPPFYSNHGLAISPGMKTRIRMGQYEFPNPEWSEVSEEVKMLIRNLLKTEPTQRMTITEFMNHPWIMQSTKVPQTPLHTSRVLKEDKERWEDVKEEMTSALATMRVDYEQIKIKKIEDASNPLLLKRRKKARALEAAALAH
Description: (§1) All protein kinases were of human origin and encoded full length proteins, unless indicated otherwise. They were either expressed as glutathione S-transferase (GST) fusion proteins in Escherichia Coli or as hexahistidine (His6)-tagged proteins in insect Sf21 cells. GST fusion proteins were purified by affinity chromatography on glutathione-Sepharose, and His6-tagged proteins on nickel/nitriloacetate-agarose. The procedures for expressing some of the protein kinases used herein have been detailed previously.^8,9 The following sections outline the DNA vectors synthesised and the procedures used to express and purifying protein kinases that have not been reported previously.
(§2) All assays (25.5 μl) were carried out at room temperature (21° C.) and were linear with respect to time and enzyme concentration under the conditions used. Assays were performed for 30 min using Multidrop Micro reagent dispensers (Thermo Electron Corporation, Waltham, Mass. 02454, USA) in a 96-well format. The concentration of magnesium acetate in the assays was 10 mM and the [γ-33P] ATP (800 cpm/pmol) was used at 5, 20 or 50 μM as indicated, in order to be at or below the Km for ATP for each enzyme. Protein kinases assayed at 5 μM ATP were: —ERK1, ERK8, PKBα, MARK3, Aurora C. Protein kinases assayed at 20 μM ATP were: —JNK1, PDK1, CHK1, CHK2, CDK2 and Aurora B. Protein kinases assayed at 50 μM ATP were: —MNK2, IKKepsilon and TBK1.
(§3) The assays were initiated with MgATP, stopped by addition of 5 μl of 0.5 M orthophosphoric acid and spotted on to P81 filterplates using a unifilter harvester (PerkinElmer, Boston, Mass. 02118, USA). The IC50 values of inhibitors were determined after carrying out assays at 10 different concentrations of each compound.
(§4) Unless stated otherwise, enzymes were diluted in 50 mM Tris/HCl pH 7.5, 0.1 mM EGTA, 1 mg/ml BSA, 0.1% (v/v) 2-mercaptoethanol and assayed in 50 mM Tris/HCl pH 7.5, 0.1 mM EGTA, 0.1% (v/v) 2-mercaptoethanol.

DYRK3 = target: T2, DYRK3 (Homo sapiens, UniProt O43781); assay: DYRK3 protein kinase assay; details: for remaining activity at 10 µM: 10 μM compound; for residual kinase activity DYRK3: 1 μm compound; for remaining activity at 1 µM: 1 μM compound
T2 construct: All protein kinases were of human origin and encoded full length proteins, unless indicated otherwise; made in house
T2 sequence (O43781 1-588): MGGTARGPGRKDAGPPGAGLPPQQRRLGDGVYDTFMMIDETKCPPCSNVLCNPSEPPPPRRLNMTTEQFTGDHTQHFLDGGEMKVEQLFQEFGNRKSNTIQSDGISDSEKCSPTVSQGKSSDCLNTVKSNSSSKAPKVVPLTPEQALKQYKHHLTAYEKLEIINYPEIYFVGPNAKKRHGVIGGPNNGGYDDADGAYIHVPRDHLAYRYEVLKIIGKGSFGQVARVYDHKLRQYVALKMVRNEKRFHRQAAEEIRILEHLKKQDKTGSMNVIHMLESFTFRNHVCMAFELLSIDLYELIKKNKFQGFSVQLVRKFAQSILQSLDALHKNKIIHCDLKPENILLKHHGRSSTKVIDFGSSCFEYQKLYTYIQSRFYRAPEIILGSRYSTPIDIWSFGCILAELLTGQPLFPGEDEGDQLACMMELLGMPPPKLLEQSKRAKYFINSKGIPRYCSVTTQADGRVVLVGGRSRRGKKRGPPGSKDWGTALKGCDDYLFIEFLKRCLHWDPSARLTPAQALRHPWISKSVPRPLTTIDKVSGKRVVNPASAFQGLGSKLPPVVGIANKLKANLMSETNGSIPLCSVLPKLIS
Description: as §1, §2, §3, §4

PKD1 = target: T3, PKD1 (Homo sapiens, UniProt Q15139); assay: PKD1 protein kinase assay; details: for remaining activity at 10 µM: 10 μM compound; for residual kinase activity PKD1: 1 μm compound; for remaining activity at 1 µM: 1 μM compound
T3 construct: All protein kinases were of human origin and encoded full length proteins, unless indicated otherwise; made in house
T3 sequence (Q15139 1-912): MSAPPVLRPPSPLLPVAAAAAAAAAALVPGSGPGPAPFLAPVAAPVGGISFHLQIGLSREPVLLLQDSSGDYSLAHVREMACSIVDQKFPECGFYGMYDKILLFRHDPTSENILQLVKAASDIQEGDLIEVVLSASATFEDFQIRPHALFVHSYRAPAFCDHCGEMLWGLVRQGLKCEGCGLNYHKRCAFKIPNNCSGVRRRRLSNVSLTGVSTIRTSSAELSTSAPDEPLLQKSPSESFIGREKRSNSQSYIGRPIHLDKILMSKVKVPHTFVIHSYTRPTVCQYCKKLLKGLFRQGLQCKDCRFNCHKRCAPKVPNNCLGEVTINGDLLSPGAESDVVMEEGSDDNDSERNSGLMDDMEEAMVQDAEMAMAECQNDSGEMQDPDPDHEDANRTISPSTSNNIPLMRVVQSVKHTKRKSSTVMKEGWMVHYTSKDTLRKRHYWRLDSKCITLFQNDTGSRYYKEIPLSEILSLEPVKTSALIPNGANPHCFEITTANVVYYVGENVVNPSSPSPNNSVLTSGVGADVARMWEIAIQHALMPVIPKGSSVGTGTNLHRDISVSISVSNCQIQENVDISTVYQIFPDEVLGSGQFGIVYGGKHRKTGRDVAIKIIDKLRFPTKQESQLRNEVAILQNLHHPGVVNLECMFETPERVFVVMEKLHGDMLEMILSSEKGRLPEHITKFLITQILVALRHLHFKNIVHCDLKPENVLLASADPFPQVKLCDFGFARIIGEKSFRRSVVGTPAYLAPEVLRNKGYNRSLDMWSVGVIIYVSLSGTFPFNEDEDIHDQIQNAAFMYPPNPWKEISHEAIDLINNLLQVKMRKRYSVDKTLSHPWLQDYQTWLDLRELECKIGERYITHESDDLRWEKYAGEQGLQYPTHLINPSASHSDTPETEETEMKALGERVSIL
Description: as §1, §2, §3, §4

[1] = read-out: residual kinase activity MAPKAP-K2
[2] = read-out: residual kinase activity DYRK3
[3] = read-out: residual kinase activity PKD1
[4] = MAPKAP-K2, read-out: residual kinase activity
[5] = DYRK3, read-out: residual kinase activity
[6] = PKD1, read-out: residual kinase activity

Structure (SMILES): O=C(NCCCNc1nc(Nc2cccc(F)c2)ncc1Br)C1CCC1 [Compound A, cyclobutanecarboxylic acid {3-[5-bromo-2-(3-fluoro-phenylamino)-pyrimidin-4-ylamino]-propyl}-amide, reference compound]
- remaining activity at 10 µM (MAPKAP-K2; [1]): 48%
- residual kinase activity MAPKAP-K2 (MAPKAP-K2): 82%
- remaining activity at 10 µM (DYRK3; [2]): 7%
- residual kinase activity DYRK3 (DYRK3): 33%
- remaining activity at 10 µM (PKD1; [3]): 1%
- residual kinase activity PKD1 (PKD1): 7%

Structure (SMILES): O=C(NCCCNc1nc(Nc2cccc(F)c2)ncc1C1CC1)C1CCC1 [Example 23, Cyclobutanecarboxylic acid {3-[5-cyclopropyl-2-(3-fluoro-phenylamino)-pyrimidin-4-ylamino]-propyl}-amide]
- remaining activity at 10 µM (MAPKAP-K2; [1]): 86%
- residual kinase activity MAPKAP-K2 (MAPKAP-K2): 77%
- remaining activity at 1 µM (MAPKAP-K2; [4]): 77%
- remaining activity at 10 µM (MAPKAP-K2; [4]): 86%
- remaining activity at 10 µM (DYRK3; [2]): 36%
- residual kinase activity DYRK3 (DYRK3): 78%
- remaining activity at 1 µM (DYRK3; [5]): 78%
- remaining activity at 10 µM (DYRK3; [5]): 36%
- remaining activity at 10 µM (PKD1; [3]): 53%
- residual kinase activity PKD1 (PKD1): 68%
- remaining activity at 1 µM (PKD1; [6]): 68%
- remaining activity at 10 µM (PKD1; [6]): 53%

Structure (SMILES): O=C(NCCCNc1nc(Nc2cccc(N3CCCC3=O)c2)ncc1C1CC1)c1cccs1 [Example 47, Thiophene-2-carboxylic acid (3-{5-cyclopropyl-2-[3-(2-oxo-pyrrolidin-1-yl)-phenylamino]-pyrimidin-4-ylamino}-propyl)-amide. Hydrochloride salt]
- remaining activity at 1 µM (MAPKAP-K2; [4]): 75%
- remaining activity at 10 µM (MAPKAP-K2; [4]): 95%
- remaining activity at 1 µM (DYRK3; [5]): 73%
- remaining activity at 10 µM (DYRK3; [5]): 33%
- remaining activity at 1 µM (PKD1; [6]): 57%
- remaining activity at 10 µM (PKD1; [6]): 52%

Structure (SMILES): O=C(NCCCNc1nc(Nc2cccnc2)ncc1C1CC1)c1cccs1 [Example 50, Thiophene-2-carboxylic acid {3-[5-cyclopropyl-2-(pyridin-3-ylamino)-pyrimidin-4-ylamino]-propyl}-amide]
- remaining activity at 1 µM (MAPKAP-K2; [4]): 88%
- remaining activity at 10 µM (MAPKAP-K2; [4]): 85%
- remaining activity at 1 µM (DYRK3; [5]): 59%
- remaining activity at 10 µM (DYRK3; [5]): 22%
- remaining activity at 1 µM (PKD1; [6]): 60%
- remaining activity at 10 µM (PKD1; [6]): 36%
